# Columns and labels:
# hMC-4R [1] = biological target: T1, hMC-4R (Homo sapiens, UniProt P32245); assay: Membrane binding assay (fluorescence polarization, fluorescence labeled NDP-alpha-MSH competition); conditions: HEK293 cell membrane preparations
# T1 construct: expressed in transfected cells; host or cells: HEK293
# Protocol: (§1) A membrane binding assay is used to identify competitive inhibitors of fluorescence labeled NDP-alpha-MSH binding to HEK293 cell membrane preparations expressing human melanocortin receptors.
# (§2) The test compound or unlabeled NDP-alpha-MSH is dispensed at varying concentrations to a 384 well microtiter plate. Fluorescence labeled NDP-alpha-MSH is dispensed at a single concentration, followed by addition of membrane preparations. The plate is incubated for 5 h at room temperature.
# (§3) The degree of fluorescence polarization is determined with a fluorescence polarization microplate reader.
# hMC-4R [2] = biological target: T1, hMC-4R; assay: Functional cellular cAMP assay (fluorescence polarization); format: cell-based; conditions: for EC50: HEK293 cells, cAMP production; for % activation: cAMP production compared to stimulation with NDP-alpha-MSH; for fold improvement of functional activity: compared with WO030009850A1, Examples 1 and 34; for fold better functional activity: hMC4 EC50 compared with WO030009850A1, Example 166
# Protocol: A functional cellular assay, based on competition between unlabeled cAMP and a fixed quantity of fluorescence labeled cAMP for a limited number of binding sites on a cAMP specific antibody, is used to discriminate melanocortin receptor agonists from antagonists by fluorescence polarization.
# HEK293 cells expressing one of the human melanocortin receptors are transferred to 384 well microtiter plates, an appropriate amount of cAMP antibody is added, followed by the addition of different concentrations of the test compound to effect cAMP production. Cells are lysed and a fluorescence labeled cAMP conjugate is dispensed. The plate is read on a fluorescence polarization microplate reader and the amount of cAMP produced as a response to a test compound is compared to the production of cAMP resulting from stimulation with NDP-alpha-MSH.
# To define antagonistic activity of a test compound, the compound is dispensed at different concentrations to cells stimulated by an appropriate amount of NDP-α-MSH. Inhibition of cAMP production is determined by comparing the inhibition of cAMP production of the test compound to the inhibition of cAMP production by a known inhibitor tested at the same concentrations.
# hMC-3R = biological target: T2, hMC-3R (Homo sapiens, UniProt P41968); assay: Membrane binding assay (fluorescence polarization, fluorescence labeled NDP-alpha-MSH competition); conditions: HEK293 cell membrane preparations
# T2 construct: expressed in transfected cells; host or cells: HEK293
# Protocol: as §1, §2, §3
# hMC-5R = biological target: T3, hMC-5R (Homo sapiens, UniProt P33032); assay: as above; conditions: HEK293 cell membrane preparations
# T3 construct: expressed in transfected cells; host or cells: HEK293
# Protocol: as §1, §2, §3
# T2 sequence (P41968 whole entry): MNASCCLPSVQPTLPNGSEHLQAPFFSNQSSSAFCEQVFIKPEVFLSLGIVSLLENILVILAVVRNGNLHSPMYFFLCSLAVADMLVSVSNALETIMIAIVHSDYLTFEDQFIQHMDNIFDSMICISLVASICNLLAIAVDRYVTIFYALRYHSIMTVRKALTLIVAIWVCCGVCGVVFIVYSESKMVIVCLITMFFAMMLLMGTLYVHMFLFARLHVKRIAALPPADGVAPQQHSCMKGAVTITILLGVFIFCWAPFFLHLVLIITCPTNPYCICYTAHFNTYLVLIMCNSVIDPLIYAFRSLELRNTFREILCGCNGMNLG
# T1 sequence (P32245 whole entry): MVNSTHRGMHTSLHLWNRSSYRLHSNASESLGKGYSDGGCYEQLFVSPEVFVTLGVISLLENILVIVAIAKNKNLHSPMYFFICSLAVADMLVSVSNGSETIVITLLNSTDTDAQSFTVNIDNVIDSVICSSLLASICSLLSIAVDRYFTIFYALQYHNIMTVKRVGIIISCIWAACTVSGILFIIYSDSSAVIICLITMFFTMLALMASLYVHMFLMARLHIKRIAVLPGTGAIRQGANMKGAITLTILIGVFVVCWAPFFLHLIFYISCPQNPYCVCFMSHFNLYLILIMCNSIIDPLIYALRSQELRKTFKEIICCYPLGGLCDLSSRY
# T3 sequence (P33032 whole entry): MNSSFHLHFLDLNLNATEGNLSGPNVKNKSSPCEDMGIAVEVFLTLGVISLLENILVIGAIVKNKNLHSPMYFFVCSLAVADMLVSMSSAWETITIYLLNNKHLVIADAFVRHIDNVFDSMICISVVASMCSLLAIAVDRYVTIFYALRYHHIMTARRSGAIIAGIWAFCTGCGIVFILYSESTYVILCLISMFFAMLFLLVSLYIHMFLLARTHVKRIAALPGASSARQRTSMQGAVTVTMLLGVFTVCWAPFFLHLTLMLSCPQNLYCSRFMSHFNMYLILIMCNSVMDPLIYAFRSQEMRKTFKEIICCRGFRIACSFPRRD
IC50 (hMC-4R [1]) [nM],EC50 (hMC-4R [2]) [nM],% activation (hMC-4R [2]) [%],IC50 (hMC-5R) [nM],IC50 (hMC-3R) [nM],"Functional Activity hMC-4R, % @10 µM (hMC-4R [2]; @10 µM) [%@10 µM]",SMILES,"Binding Activity hMC-3R, % @10 uM (hMC-3R) [%@10 uM]",fold improvement of functional activity (hMC-4R [2]),fold better functional activity (hMC-4R [2]) [fold]
29,260,109,1300,,,O=C(N[C@H](Cc1ccc(Cl)cc1)C(=O)N1CCN(c2ccccc2CN2CCCC2=O)CC1)[C@H]1Cc2ccccc2CN1 [Example 3],41,more than 14 fold,11
40,1020,107,3300,5200,,"O=C(N[C@H](Cc1ccc(Cl)cc1)C(=O)N1CCC(c2ccccc2CN2CCCC2=O)CC1)C1CNC1 [WO030009847 Example 153, (R)-azetidine-3-carboxylic acid (1-(4-chloro-benzyl)-2-oxo-2-{4-[2-(2-oxo-pyrrolidin-1-ylmethyl)-phenyl]-piperidin-1-yl}-ethyl)-amide, reference compound]",,,
500,3740,96,,,,"CS(=O)(=O)Nc1ccccc1N1CCN(C(=O)[C@@H](Cc2ccc(Cl)cc2)NC(=O)[C@H]2Cc3ccccc3CN2)CC1 [WO030009850 Example 1, (R,R)-1,2,3,4-tetrahydro-isoquinoline-3-carboxylic acid {1-(4-chloro-benzyl)-2-[4-(2-methanesulfonylamino-phenyl)-piperazin-1-yl]-2-oxo-ethyl}-amide, reference compound]",,,
2900,,,,,11,"CS(=O)(=O)Nc1ccccc1N1CCN(C(=O)[C@@H](Cc2ccc(Cl)cc2)NC(=O)C2CNC2)CC1 [WO030009850 Example 34, (R)-azetidine-3-carboxylic acid {1-(4-chloro-benzyl)-2-[4-(2-methanesulfonylamino-phenyl)-piperazin-1-yl]-2-oxo-ethyl}-amide, reference compound]",,,
110,2850,90,6900,19200,,"O=C(N[C@H](Cc1ccc(Cl)cc1)C(=O)N1CCN(c2ccccc2CN2CCCC2=O)CC1)C1CNC1 [WO030009850 Example 166, (R)-azetidine-3-carboxylic acid (1-(4-chloro-benzyl)-2-oxo-2-{4-[2-(2-oxo-pyrrolidin-1-ylmethyl)-phenyl]-piperazin-1-yl}-ethyl)-amide, reference compound]",,,

# Further lines, the molecule ahead of its results:
SMILES,IC50 (hMC-4R [1]) [nM],EC50 (hMC-4R [2]) [nM],% activation (hMC-4R [2]) [%],IC50 (hMC-5R) [nM],IC50 (hMC-3R) [nM],"Functional Activity hMC-4R, % @10 µM (hMC-4R [2]; @10 µM) [%@10 µM]","Binding Activity hMC-3R, % @10 uM (hMC-3R) [%@10 uM]",fold improvement of functional activity (hMC-4R [2]),fold better functional activity (hMC-4R [2]) [fold]
"NC1c2ccccc2CCC1C(=O)N[C@H](Cc1ccc(Cl)cc1)C(=O)N1CCC(c2ccccc2CN2CCCC2=O)CC1 (single isomer, unassigned) [Example 2A]",17,101,86,,,,,,
"NC1c2ccccc2CCC1C(=O)N[C@H](Cc1ccc(Cl)cc1)C(=O)N1CCC(c2ccccc2CN2CCCC2=O)CC1 (single isomer, unassigned) [Example 2B]",7,29,90,,,,,,
"NC1c2ccccc2CCC1C(=O)N[C@H](Cc1ccc(Cl)cc1)C(=O)N1CCN(c2ccccc2CN2CCCC2=O)CC1 (single isomer, unassigned) [Example 4B]",21,180,91,1800,,,47,> 21 fold,16
O=C(N[C@H](Cc1ccc(Cl)cc1)C(=O)N1CCC(c2ccccc2CN2CCCC2=O)CC1)[C@H]1Cc2ccccc2CN1 [Example 1],17,60,112,807,7200,,,,

# From EP1538159A1, “Substituted N-benzyl-lactam derivatives as melanocortin-4 receptor agonists” (Santhera Pharmaceuticals (Schweiz) GmbH, priority 2003, dated 2005)
